According to US3984531A, “Technetium-99m-tin-monofluorophosphate complex” (The Radiochemical Centre Limited, priority 1973, dated 1976):

What was measured:
[1] = skeletal imaging prior to 1971; cited from earlier work
[2] = monoenergetic; cited from earlier work
[3] = compared with stannous chloride
[4] = Subramanian and McAfee, Radiology 1971; cited from earlier work
[5] = long chain polyphosphate material; cited from earlier work

Compound: [18FH] [Fluorine-18, fluorine-18]
- scan performance (in words) [1]: good agent

Compound: [85Sr] [Strontium-85, strontium-85]
- scan performance (in words) [1]: poor quality scans

Compound: [87Sr] [Strontium-87m, strontium-87m]
- scan performance (in words) [1]: high blood background

Compound: [99Tc] [technetium-99m]
- gamma emission energy [2]: 140 KeV

Compound: Stannous fluoride
- stability to hydrolysis in aqueous solution (in words) [3]: more stable to hydrolysis in aqueous solution than stannous chloride

Compound: tripolyphosphate
- skeletal uptake / localization (in words) [4]: good skeletal uptake of activity
- stability with respect to hydrolysis (in words) [5]: instability of the long chain polyphosphate material with respect to hydrolysis
